Results from PubChem BioAssay AID1963961 (Molecular Pharmacology Branch, DTP, NCI, 2024).
pIC50: −log10 of the molar value.

Test system: K98450-129-R-PDC multicell spheroids, viability
Test: Anticancer human tumor K98450-129-R-PDC patient-derived colon adenocarcinoma cell line growth inhibition [PI3K]
Settings: for pIC50: curve of first compound; for viability, T/C: stronger effect = lower value
Outline: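 Stroma-containing spheroids: tumor line, pooled-donor HUVEC, hMSC. Treatments: targeted agents with PI3K inhibitors. Dosing: clinically relevant, half-log spacing, 10 microM ceiling without known Cmax. Read-out: cell viability.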
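Further: spheroids exposed to agents for seven days before read-out.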

CC(C)NCC(C(=O)N1CCN(c2ncnc3c2C(C)CC3O)CC1)c1ccc(Cl)cc1 (configuration not stated) + CC(Nc1ccc2c(c1)OCCn1cc(N3C(=O)OCC3C(F)F)nc1-2)C(N)=O
pIC50 (second compound 0.00316 µM): < 5.00 | pIC50 (second compound 0.01 µM): < 5.00 | pIC50 (second compound 0.0316 µM): < 5.00 | pIC50 (second compound 0.1 µM): < 5.00 | pIC50 (second compound 0.316 µM): < 5.00 | pIC50 (second compound 1 µM): < 5.00 | viability, T/C (second compound 0.00316 µM, first compound 0.0316 µM): 111% | viability, T/C (second compound 0.00316 µM, first compound 0.1 µM): 98% | viability, T/C (second compound 0.00316 µM, first compound 0.316 µM): 101% | viability, T/C (second compound 0.00316 µM, first compound 1 µM): 101% | viability, T/C (second compound 0.00316 µM, first compound 3.16 µM): 109% | viability, T/C (second compound 0.00316 µM, first compound 10 µM): 98.4% | viability, T/C (second compound 0.01 µM, first compound 0.0316 µM): 115% | viability, T/C (second compound 0.01 µM, first compound 0.1 µM): 96.1% | viability, T/C (second compound 0.01 µM, first compound 0.316 µM): 105% | viability, T/C (second compound 0.01 µM, first compound 1 µM): 98.1% | viability, T/C (second compound 0.01 µM, first compound 3.16 µM): 104% | viability, T/C (second compound 0.01 µM, first compound 10 µM): 102% | viability, T/C (second compound 0.0316 µM, first compound 0.0316 µM): 109% | viability, T/C (second compound 0.0316 µM, first compound 0.1 µM): 104% | viability, T/C (second compound 0.0316 µM, first compound 0.316 µM): 98.9% | viability, T/C (second compound 0.0316 µM, first compound 1 µM): 101% | viability, T/C (second compound 0.0316 µM, first compound 3.16 µM): 109% | viability, T/C (second compound 0.0316 µM, first compound 10 µM): 96.9% | viability, T/C (second compound 0.1 µM, first compound 0.0316 µM): 96.2% | viability, T/C (second compound 0.1 µM, first compound 0.1 µM): 91.7% | viability, T/C (second compound 0.1 µM, first compound 0.316 µM): 101% | viability, T/C (second compound 0.1 µM, first compound 1 µM): 102% | viability, T/C (second compound 0.1 µM, first compound 3.16 µM): 101% | viability, T/C (second compound 0.1 µM, first compound 10 µM): 96.2% | viability, T/C (second compound 0.316 µM, first compound 0.0316 µM): 91% | viability, T/C (second compound 0.316 µM, first compound 0.1 µM): 90.5% | viability, T/C (second compound 0.316 µM, first compound 0.316 µM): 100% | viability, T/C (second compound 0.316 µM, first compound 1 µM): 99.2% | viability, T/C (second compound 0.316 µM, first compound 3.16 µM): 111% | viability, T/C (second compound 0.316 µM, first compound 10 µM): 94.2% | viability, T/C (second compound 1 µM, first compound 0.0316 µM): 85.2% | viability, T/C (second compound 1 µM, first compound 0.1 µM): 85.4% | viability, T/C (second compound 1 µM, first compound 0.316 µM): 96.8% | viability, T/C (second compound 1 µM, first compound 1 µM): 94.1% | viability, T/C (second compound 1 µM, first compound 3.16 µM): 100% | viability, T/C (second compound 1 µM, first compound 10 µM): 95.2%
